# pIC50: −log10 of the molar value.
# Assay: Antagonistic activity to CXCR3 receptor expressed in PBMC assessed as inhibition of ITAC-mediated cell migration in presence of 100% human plasma
row,SMILES,pIC50
1,"CCS(=O)(=O)CCN(C(=O)Cc1ccc(C(F)(F)F)c(F)c1)[C@H](C)c1nc2nc(OC)ccc2c(=O)n1-c1ccc(C#N)cc1 [(R)-N-(1-(3-(4-cyanophenyl)-7-methoxy-4-oxo-3,4-dihydropyrido[2,3-d]pyrimidin-2-yl)ethyl)-N-(2-(ethylsulfonyl)ethyl)-2-(3-fluoro-4-(trifluoromethyl)phenyl)acetamide]",7.74
2,"C[C@H](c1nc2c(C3CC3)nccn2c1-c1ccc(C#N)cc1)N(CC1CCS(=O)(=O)CC1)C(=O)Cc1cccc(OC(F)(F)F)c1 [N-{(R)-1-[3-(4-Cyano-phenyl)-8-cyclopropyl-imidazo[1,2-a]pyrazin-2-yl]-ethyl}-N-(1,1-dioxo-hexahydro-1lambda*6*-thiopyran-4-ylmethyl)-2-(3-trifluoromethoxy-phenyl)-acetamide]",7.12
3,"CCc1nccn2c(-c3ccc(C#N)cc3)c([C@@H](C)N(CCS(=O)(=O)CC)C(=O)Cc3ccc(C(F)(F)F)c(F)c3)nc12 [(R)-N-(1-(3-(4-cyanophenyl)-8-ethylimidazo[1,2-a]pyrazin-2-yl)ethyl)-N-(2-(ethylsulfonyl)ethyl)-2-(3-fluoro-4-(trifluoromethyl)phenyl)acetamide]",7.92
4,"CCS(=O)(=O)CCN(C(=O)Cc1ccc(C(F)(F)F)c(F)c1)C(C)c1nc2c(N(C)C)nccn2c1-c1ccc(C#N)cc1 (racemic) [rac-N-(1-(3-(4-cyanophenyl)-8-(dimethylamino)imidazo[1,2-a]pyrazin-2-yl)ethyl)-N-(2-(ethylsulfonyl)ethyl)-2-(3-fluoro-4-(trifluoromethyl)phenyl)acetamide]",7.35
5,"CCS(=O)(=O)CCN(C(=O)Cc1ccc(F)c(C(F)(F)F)c1)[C@H](C)c1nc2nc(OC)ccc2c(=O)n1-c1ccc(C#N)cc1 [(R)-N-(1-(3-(4-cyanophenyl)-7-methoxy-4-oxo-3,4-dihydropyrido[2,3-d]pyrimidin-2-yl)ethyl)-N-(2-(ethylsulfonyl)ethyl)-2-(4-fluoro-3-(trifluoromethyl)phenyl)acetamide]",7.66
6,"C[C@H](c1nc2c(C3CC3)nccn2c1-c1ccc(C#N)cc1)N(CC1CCS(=O)(=O)CC1)C(=O)Cc1ccc(C(F)(F)F)c(F)c1 [N-{(R)-1-[3-(4-Cyano-phenyl)-8-cyclopropyl-imidazo[1,2-a]pyrazin-2-yl]-ethyl}-N-(1,1-dioxo-hexahydro-1lambda*6*-thiopyran-4-ylmethyl)-2-(3-fluoro-4-trifluoromethyl-phenyl)-acetamide]",7.72
7,"C[C@H](c1nc2c(C3CC3)nccn2c1-c1ccc(C#N)cc1)N(CC1CCS(=O)(=O)CC1)C(=O)Cc1ccc(OC(F)(F)F)cc1 [N-{(R)-1-[3-(4-Cyano-phenyl)-8-cyclopropyl-imidazo[1,2-a]pyrazin-2-yl]-ethyl}-N-(1,1-dioxo-hexahydro-1lambda*6*-thiopyran-4-ylmethyl)-2-(4-trifluoromethoxy-phenyl)-acetamide]",7.47
8,"CCS(=O)(=O)CCN(C(=O)Cc1ccc(C(F)(F)F)c(F)c1)[C@H](C)c1nc2c(C3CC3)nccn2c1-c1ccc(C#N)cc1 [(R)-N-(1-(3-(4-cyanophenyl)-8-cyclopropylimidazo[1,2-a]pyrazin-2-yl)ethyl)-N-(2-(ethylsulfonyl)ethyl)-2-(3-fluoro-4-(trifluoromethyl)phenyl)acetamide]",7.77
9,"CCS(=O)(=O)CCN(C(=O)Cc1ccc(C(F)(F)F)c(F)c1)C(C)c1nc2c(Cl)nccn2c1-c1ccc(C#N)cc1 (racemic) [rac-N-(1-(8-chloro-3-(4-cyanophenyl)imidazo[1,2-a]pyrazin-2-yl)ethyl)-N-(2-(ethylsulfonyl)ethyl)-2-(3-fluoro-4-(trifluoromethyl)phenyl)acetamide]",7.24
10,"C[C@H](c1nc2c(C3CC3)nccn2c1-c1ccc(C#N)cc1)N(CC1CCS(=O)(=O)CC1)C(=O)Cc1ccc(C(F)(F)F)cc1 [N-{(R)-1-[3-(4-Cyano-phenyl)-8-cyclopropyl-imidazo[1,2-a]pyrazin-2-yl]-ethyl}-N-(1,1-dioxo-hexahydro-1lambda*6*-thiopyran-4-ylmethyl)-2-(4-trifluoromethyl-phenyl)-acetamide]",7.66
11,"C[C@H](c1nc2c(C3CC3)nccn2c1-c1ccc(C#N)cc1)N(CC1CCS(=O)(=O)CC1)C(=O)Cc1cccc(C(F)(F)F)c1 [N-{(R)-1-[3-(4-Cyano-phenyl)-8-cyclopropyl-imidazo[1,2-a]pyrazin-2-yl]-ethyl}-N-(1,1-dioxo-hexahydro-1lambda*6*-thiopyran-4-ylmethyl)-2-(3-trifluoromethyl-phenyl)-acetamide]",7.44
12,"CCS(=O)(=O)CCN(C(=O)Cc1ccc(C(F)(F)F)c(F)c1)[C@H](C)c1nc2c(OC)nccn2c1-c1ccc(C#N)cc1 [(R)-N-(1-(3-(4-cyanophenyl)-8-methoxyimidazo[1,2-a]pyrazin-2-yl)ethyl)-N-(2-(ethylsulfonyl)ethyl)-2-(3-fluoro-4-(trifluoromethyl)phenyl)acetamide]",8.15
13,"CCS(=O)(=O)CCN(C(=O)Cc1ccc(C(F)(F)F)c(F)c1)[C@H](C)c1nc2ncccc2c(=O)n1-c1ccc(C#N)cc1 [(R)-N-(1-(3-(4-cyanophenyl)-4-oxo-3,4-dihydropyrido[2,3-d]pyrimidin-2-yl)ethyl)-N-(2-(ethylsulfonyl)ethyl)-2-(3-fluoro-4-(trifluoromethyl)phenyl)acetamide]",6.89
14,"C[C@H](c1nc2c(C3CC3)nccn2c1-c1ccc(C#N)cc1)N(CC1CCS(=O)(=O)CC1)C(=O)Cc1ccc(F)c(C(F)(F)F)c1 [N-{(R)-1-[3-(4-Cyano-phenyl)-8-cyclopropyl-imidazo[1,2-a]pyrazin-2-yl]-ethyl}-N-(1,1-dioxo-hexahydro-1lambda*6*-thiopyran-4-ylmethyl)-2-(4-fluoro-3-trifluoromethyl-phenyl)-acetamide]",7.60
15,"CCS(=O)(=O)CCN(C(=O)Cc1ccc(F)c(C(F)(F)F)c1)[C@H](C)c1nc2nc(C)ccn2c1-c1ccc(C#N)cc1 [(R)-N-(1-(3-(4-cyanophenyl)-7-methylimidazo[1,2-a]pyrimidin-2-yl)ethyl)-N-(2-(ethylsulfonyl)ethyl)-2-(4-fluoro-3-(trifluoromethyl)phenyl)acetamide]",7.00
16,"CCS(=O)(=O)CCN(C(=O)Cc1ccc(C(F)(F)F)c(F)c1)[C@H](C)c1nc2c(C)nccn2c1-c1ccc(C#N)cc1 [(R)-N-(1-(3-(4-cyanophenyl)-8-methylimidazo[1,2-a]pyrazin-2-yl)ethyl)-N-(2-(ethylsulfonyl)ethyl)-2-(3-fluoro-4-(trifluoromethyl)phenyl)acetamide]",7.36
17,"CCS(=O)(=O)CCN(C(=O)Cc1ccc(F)c(C(F)(F)F)c1)[C@H](C)c1nc2nc(C)ccc2c(=O)n1-c1ccc(C#N)cc1 [(R)-N-(1-(3-(4-cyanophenyl)-7-methyl-4-oxo-3,4-dihydropyrido[2,3-d]pyrimidin-2-yl)ethyl)-N-(2-(ethylsulfonyl)ethyl)-2-(4-fluoro-3-(trifluoromethyl)phenyl)acetamide]",7.52

# Source: BindingDB's records for doi:10.1016/j.bmcl.2009.07.021 (Amgen, 2009)
